According to patent US20260137706A1, “METHODS OF TREATING INFLAMMATORY DISEASES” (INTERLINE THERAPEUTICS, INC., priority 2023, published 2026):
Where two headings read alike, the source gives them in different places.

How the values were obtained:
[1] = system: NF-κB pathway (SEAP) in THP1-Dual cells; test: THP-1 Dual cell SEAP assay (L18-MDP stimulated); type: cell-based; settings: Homo sapiens, THP1-Dual, read-out: NF-κB THP1 IC50 bin
Method in brief: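 THP1-Dual cells (~25,000/well) were preincubated 30 min with serially diluted compounds, then stimulated with 10 ng/mL L18-MDP (final) for 20-24 h at 37 °C. Supernatant SEAP was read with QUANTI-Blue at OD 620-655 nm after 2 h. IC50 came from non-linear fits of % inhibition versus DMSO/L18-MDP controls after media-blank subtraction.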

[2] = biological target: T1, GST-RIPK2 fusion protein (human RIPK2, amino acids 1-310) (Homo sapiens, UniProt O43353); test: RIPK2 binding competition assay (TR-FRET, Tracer 199 displacement)
T1 construct: made in house; host or cells: baculovirus infected Sf9 cells
Method in brief: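 GST-RIPK2 (human aa 1-310, Sf9-expressed; final 1 nM) with Tracer 199 (final 10 nM) and Tb-anti-GST (final 0.5 nM) in Tris pH 7.5 buffer, 45 min at 22 °C. TR-FRET 665/620 nm ratio after 337 nm excitation; normalized to no-inhibitor (0%) and no-protein (−100%), giving IC50.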

[3] = biological target: T2, binding of His-XIAP(BIR2)-avi fusion protein to GST-RIPK2 fusion protein (RIPK2/XIAP) (Homo sapiens, UniProt O43353); test: RIPK2-XIAP binding competition PPI assay (TR-FRET); settings: for Emax: read-out: PPI Amax bin
T2 construct: made in house; host or cells: baculovirus infected Sf9 cells
Method in brief: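 Compounds (in DMSO, 100-fold stock) incubated 120 min at 23 °C with 1 nM GST-RIPK2 (aa 1-310) and 25 nM His-XIAP(BIR2 aa 152-231)-avi, plus anti-His-XL665 and anti-GST-Tb, in pH 7.5 Tris buffer. Read-out: 665/520 nm emission ratio. Normalized to no-inhibitor (0%) and 50 nM GSK583 (−100%); Amax binned A–D.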

[4] = 10 nM Tracer 199, 1 nM GST-RIPK2, read-out: RIPK2 IC50
[5] = RIPK2/XIAP binding competition PPI assay, Amax
[6] = RIPK2/XIAP binding competition PPI assay, read-out: PPI IC50 bin

T2 sequence (O43353 1-310 limits assumed): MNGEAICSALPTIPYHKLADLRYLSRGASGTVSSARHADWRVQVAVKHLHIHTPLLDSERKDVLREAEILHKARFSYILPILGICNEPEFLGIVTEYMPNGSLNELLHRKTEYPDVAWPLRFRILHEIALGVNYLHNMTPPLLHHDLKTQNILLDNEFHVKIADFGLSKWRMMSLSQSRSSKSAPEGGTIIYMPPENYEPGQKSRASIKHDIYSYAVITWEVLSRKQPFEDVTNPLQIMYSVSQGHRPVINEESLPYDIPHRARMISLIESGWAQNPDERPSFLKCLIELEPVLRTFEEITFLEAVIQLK
T1 sequence (O43353 1-310): as the sequence (O43353 1-310 limits assumed) above

Row | SMILES | IC50 [1] | IC50 [2, 4] | Emax [3, 5] | IC50 [3, 6] | Emax [3] | IC50 ([2]; RIPK2 IC50 (nM), 10 nM Tracer 199, 1 nM GST-RIPK2) | IC50 ([3]; PPI IC50 bin, RIPK2/XIAP binding competition PPI assay)
1 | COc1cc2ncc(-c3cc(F)c(OC)c(NS(=O)(=O)CC4COC4)c3)n2cc1S(=O)(=O)C(C)(C)C [Example 160, N-(5-(6-(tert-butylsulfonyl)-7-methoxyimidazo[1,2-a]pyridin-3-yl)-3-fluoro-2-methoxyphenyl)-1-(oxetan-3-yl)methanesulfonamide] | < 50 nM | < 1 nM | > 80% | < 1 nM |  |  | 
2 | COc1cc2ncc(-c3cc(F)c(N)nc3F)n2cc1S(=O)(=O)N(C)C [Example 161, 3-(6-amino-2,5-difluoropyridin-3-yl)-7-methoxy-N,N-dimethylimidazo[1,2-a]pyridine-6-sulfonamide] | > 1000 nM | > 20 nM |  | > 20 nM | > 80% |  | 
3 | CCCS(=O)(=O)Nc1cc(-c2cnc3cc(OC)c(S(=O)(=O)N4CCOCC4)cn23)cc(F)c1OC [Example 162, N-(3-fluoro-2-methoxy-5-(7-methoxy-6-(morpholinosulfonyl)imidazo[1,2-a]pyridin-3-yl)phenyl)propane-1-sulfonamide] | 50 to 250 nM | 1 to 2.5 nM | 55 to 80% | 1 to 2.5 nM |  |  | 
4 | COc1cc2ncc(-c3cc(F)c(N)nc3F)n2cc1S(=O)(=O)N1CCOCC1 [Example 163, 3,6-difluoro-5-(7-methoxy-6-(morpholinosulfonyl)imidazo[1,2-a]pyridin-3-yl)pyridin-2-amine] | > 1000 nM | > 20 nM | > 80% | > 20 nM |  |  | 
5 | COc1cc2ncc(-c3cc(F)c(N)nc3F)n2cc1S(=O)(=O)N1CCNCC1 [Example 164, 3,6-difluoro-5-(7-methoxy-6-(piperazin-1-ylsulfonyl)imidazo[1,2-a]pyridin-3-yl)pyridin-2-amine] | > 1000 nM | > 20 nM | > 80% | > 20 nM |  |  | 
6 | COc1cc2ncc(-c3cc(F)c(N)nc3F)n2cc1S(=O)(=O)N1CCN(C)CC1 [Example 165, 3,6-difluoro-5-(7-methoxy-6-((4-methylpiperazin-1-yl)sulfonyl)imidazo[1,2-a]pyridin-3-yl)pyridin-2-amine] | > 1000 nM | > 20 nM | > 80% | > 20 nM |  |  | 
7 | COc1cc2ncc(-c3cc(F)c(N)nc3F)n2cc1S(=O)(=O)C(C)(C)CN1CCN(C)CC1 [Example 166, 3,6-difluoro-5-(7-methoxy-6-((2-methyl-1-(4-methylpiperazin-1-yl)propan-2-yl)sulfonyl)imidazo[1,2-a]pyridin-3-yl)pyridin-2-amine] | > 1000 nM |  |  |  | > 80% | 2.5 to 20 nM | 2.5 to 20 nM
8 | COCC(C)(C)S(=O)(=O)c1cn2c(-c3cc(F)c(N)nc3F)cnc2cc1OC [Example 167, 3,6-difluoro-5-(7-methoxy-6-((1-methoxy-2-methylpropan-2-yl)sulfonyl)imidazo[1,2-a]pyridin-3-yl)pyridin-2-amine] | > 1000 nM | > 20 nM | > 80% | > 20 nM |  |  | 
9 | COc1cc2ncc(-c3cc(F)c(N)nc3F)n2cc1S(=O)(=O)C(C)(C)CN1CCOCC1 [Example 168, 3,6-difluoro-5-(7-methoxy-6-((2-methyl-1-morpholinopropan-2-yl)sulfonyl)imidazo[1,2-a]pyridin-3-yl)pyridin-2-amine] | 250 to 1000 nM | 2.5 to 20 nM | > 80% | 2.5 to 20 nM |  |  | 
10 | C[C@H](O)COc1cc2ncc(-c3cc(Cl)c(N)nc3F)n2cc1S(=O)(=O)C(C)(C)C [Example 169, (S)-1-((3-(6-amino-5-chloro-2-fluoropyridin-3-yl)-6-(tert-butylsulfonyl)imidazo[1,2-a]pyridin-7-yl)oxy)propan-2-ol] | 50 to 250 nM | 1 to 2.5 nM | > 80% | 1 to 2.5 nM |  |  | 
11 | C[C@H](O)COc1cc2ncc(-c3cc(F)c(N)nc3F)n2cc1S(=O)(=O)C(C)(C)C [Example 170, (S)-1-((3-(6-amino-2,5-difluoropyridin-3-yl)-6-(tert-butylsulfonyl)imidazo[1,2-a]pyridin-7-yl)oxy)propan-2-ol] | 50 to 250 nM | 1 to 2.5 nM | > 80% | 1 to 2.5 nM |  |  | 
